Laboratory results as given in US7501430B2 (ArQule, Inc., priority 2006, dated 2009).

Molecular target: T1, mutant B-RAF (Homo sapiens, UniProt P15056, V600E)
T1 construct: purchased Upstate (Charlottesville, Va.)
Assay: RAF biochemical assay (MEK-1 phosphorylation, anti-phospho MEK1/2 detection)
Details: for inhibition at 10 µM: read-out: Mutant B-RAF % inhibition; for IC50: read-out: Mutant B-RAF IC50
Outline: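 Detection is by ELISA: after a 30 min room-temperature reaction, plate-captured GST-MEK-1 is probed with anti-phospho MEK1/2, then an AP-tagged secondary antibody with fluorescent Attophos read-out.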

T1 sequence (P15056 whole entry V600E): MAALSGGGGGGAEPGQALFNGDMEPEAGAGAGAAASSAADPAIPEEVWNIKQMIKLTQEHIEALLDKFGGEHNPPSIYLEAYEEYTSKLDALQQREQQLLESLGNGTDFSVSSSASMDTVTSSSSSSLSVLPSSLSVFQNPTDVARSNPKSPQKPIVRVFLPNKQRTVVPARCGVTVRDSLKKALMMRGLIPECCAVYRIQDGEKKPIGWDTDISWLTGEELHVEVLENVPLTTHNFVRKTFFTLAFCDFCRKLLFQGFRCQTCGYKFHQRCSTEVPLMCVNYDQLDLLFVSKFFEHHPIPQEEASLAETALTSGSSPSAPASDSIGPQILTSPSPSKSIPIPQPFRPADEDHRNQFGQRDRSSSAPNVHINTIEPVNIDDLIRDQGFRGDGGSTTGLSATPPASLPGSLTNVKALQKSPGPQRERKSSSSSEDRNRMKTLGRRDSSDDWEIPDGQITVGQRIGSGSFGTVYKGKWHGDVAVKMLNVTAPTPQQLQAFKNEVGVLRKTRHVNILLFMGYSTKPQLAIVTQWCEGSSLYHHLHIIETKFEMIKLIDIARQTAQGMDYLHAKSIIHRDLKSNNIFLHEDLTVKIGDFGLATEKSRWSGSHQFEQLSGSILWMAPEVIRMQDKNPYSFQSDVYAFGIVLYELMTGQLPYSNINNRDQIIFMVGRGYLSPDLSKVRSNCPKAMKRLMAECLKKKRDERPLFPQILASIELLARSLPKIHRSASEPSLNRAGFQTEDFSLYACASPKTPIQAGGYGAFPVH

inhibition at 10 µM [%] | IC50 [nM] | SMILES
50 | – | Cc1nc(C)c(S(=O)(=O)N2CCC(Nc3nccc(-c4c(-c5ccc(F)cc5)nc5occn45)n3)CC2)s1 [Example 230, N-{1-[(2,4-dimethyl-1,3-thiazol-5-yl)sulfonyl]piperidin-4-yl)-4-[6-(4-fluorophenyl)imidazo[2,1-b][1,3]oxazol-5-yl]pyrimidin-2-amine]
– | 11 | Cn1cnc(S(=O)(=O)N2CCC[C@@H](Nc3nccc(-c4c(-c5cccc(O)c5)nc5sccn45)n3)C2)c1 [Example 366, 3-{5-[2-({(3R)-1-[(1-methyl-1H-imidazol-4-yl)sulfonyl]piperidin-3-yl}amino)pyrimidin-4-yl]imidazo[2,1-b][1,3]thiazol-6-yl}phenol]
– | 3840 | O=C(c1ccc(F)cc1)N1CCC[C@@H](Nc2nccc(-c3c(-c4cccc(O)c4)nc4sccn34)n2)C1 [Example 113, 3-[5-(2-{[(3R)-1-(4-fluorobenzoyl)piperidin-3-yl]amino}pyrimidin-4-yl)imidazo[2,1-b][1,3]thiazol-6-yl}phenol]
– | 78 | O=S(=O)(c1ccc(F)cc1)N1CCC(Nc2nccc(-c3c(-c4ccc(F)cc4)nc4sccn34)n2)CC1 [Example 153, 4-[6-(4-fiuorophenyl)imidazo[2,1-b][1,3]thiazol-5-yl]-N-{1-[(4-fluorophenyl)sulfonyl]piperidin-4-yl}pyrimidin-2-amine]
– | > 3000 | CC(C)S(=O)(=O)N1CCC[C@@H](Nc2nccc(-c3c(-c4cccc(O)c4)nc4sccn34)n2)C1 [Example 368, 3-[5-(2-{[(3R)-1-(isopropylsulfonyl)piperidin-3-yl]amino}pyrimidin-4-yl)imidazo[2,1-b][1,3]thiazol-6-yl]phenol]
– | 1580 | CC(C)(C)NC(=O)N1CCC(Nc2nccc(-c3c(-c4ccc(F)cc4)nc4occn34)n2)CC1 [Example 185, N-(tert-butyl)-4-({4-[6-(4-fluorophenyl)imidazo[2,1-b][1,3]oxazol-5-yl]pyrimidin-2-yl}amino)piperidine-1-carboxamide]
– | 26 | Cc1cn2c(-c3ccnc(N[C@@H]4CCCN(S(=O)(=O)c5ccc(Cl)cc5)C4)n3)c(-c3ccc(F)cc3)nc2s1 [Example 96, N-{(3R)-1-[(4-chlorophenyl)sulfonyl]piperidin-3-yl}-4-[6-(4-fluorophenyl)-2-methyl-imidazo[2,1-b][1,3]thiazol-5-yl]pyrimidin-2-amine]
– | > 10000 | COc1cc([N+](=O)[O-])ccc1NC(=O)N1CCC[C@@H](Nc2nccc(-c3c(-c4ccc(F)cc4)nc4occn34)n2)C1 [Example 75, (3R)-3-({4-[6-(4-fluorophenyl)imidazo[2,1-b][1,3]oxazol-5-yl]pyrimidin-2-yl}amino)-N-(2-methoxy-4-nitrophenyl)piperidine-1-carboxamide]
– | > 3000 | COc1ccc(-c2nc3sccn3c2-c2ccnc(NC3CCN(S(=O)(=O)c4ccc(Cl)cc4)CC3)n2)cc1 [Example 262, N-{1-[(4-chlorophenyl)sulfonyl]piperidin-4-yl}-4-[6-(4-methoxyphenyl)imidazo[2,1-b][1,3]thiazol-5-yl]pyrimidin-2-amine]
27 | – | COc1ccc(-c2nc3sccn3c2-c2ccnc(N[C@@H]3CCCNC3)n2)cc1 [Example 106, 4-[6-(4-methoxyphenyl)imidazo[2,1-b][1,3]thiazol-5-yl]-N-[(3R)-piperidin-3-yl]pyrimidin-2-amine]
– | 2960 | NCC(=O)Nc1cccc(-c2nc3sccn3c2-c2ccnc(N[C@@H]3CCCN(S(=O)(=O)c4ccc(Cl)cc4)C3)n2)c1 [Example 124, N~1~-(3-{5-[2-({(3R)-1-[(4-chlorophenyl)sulfonyl]piperidin-3-yl}amino)pyrimidin-4-yl]imidazo[2,1-b][1,3]thiazol-6-yl}phenyl)glycinamide]
– | 92 | O=S(=O)(c1ccc(Cl)cc1)N1CCC[C@@H](Nc2nccc(-c3c(-c4cc(O)ccc4O)nc4sccn34)n2)C1 [Example 145, 2-{5-(2-({(3R)-1-[(4-chlorophenyl)sulfonyl]piperidin-3-yl}amino)pyrimidin-4-yl]imidazo[2,1-b][1,3]thiazol-6-yl}benzene-1,4-diol]
29 | – | Cc1cc(NC(=O)N2CCC[C@@H](Nc3nccc(-c4c(-c5ccc(F)cc5)nc5occn45)n3)C2)c(C(F)(F)F)o1 [Example 67, (3R)-3-({4-[6-(4-fluorophenyl)imidazo[2,1-b][1,3]oxazol-5-yl]pyrimidin-2-yl}amino)-N-[5-methyl-2-(trifluoromethyl)-3-furyl]piperidine-1-carboxamide]
38 | – | Cc1cn2c(-c3ccnc(NC4CCN(C(=O)Nc5ccc(N(C)C)cc5)CC4)n3)c(-c3ccc(F)cc3)nc2s1 [Example 225, N-[4-(dimethylamino)phenyl]-4-({4-[6-(4-fluorophenyl)-2-methylimidazo[2,1-b][1,3]thiazol-5-yl]pyrimidin-2-yl}amino)piperidine-1-carboxamide]
– | 1630 | N#Cc1cccc(-c2nc3sccn3c2-c2ccnc(NC3CCN(S(=O)(=O)c4ccc(Cl)cc4)CC3)n2)c1 [Example 269, 3-{5-[2-({1-[(4-chlorophenyl)sulfonyl]piperidin-4-yl)amino)pyrimidin-4-yl]imidazo[2,1-b][1,3]thiazol-6-yl}benzonitrile]
– | 1040 | Oc1cccc(-c2nc3sccn3c2-c2ccnc(N[C@@H]3CCCN(CC(O)COc4ccc(Cl)cc4)C3)n2)c1 (stereo partly drawn) [Example 331, 3-{5-[2-({(3R)-1-[3-(4-chlorophenoxy)-2-hydroxypropyl]piperidin-3-yl}amino)pyrimidin-4-yl]imidazo[2,1-b][1,3]thiazol-6-yl}phenol]
58 | – | N#Cc1cccc(-c2nc3sccn3c2-c2ccnc(NC3CCNCC3)n2)c1 [Example 271, 3-{5-[2-(piperidin-4-ylamino)pyrimidin-4-yl]imidazo[2,1-b][1,3]thiazol-6-yl}benzonitrile]
– | 3610 | O=C(NCC1CCCCC1)N1CCC(Nc2nccc(-c3c(-c4ccc(F)cc4)nc4occn34)n2)CC1 [Example 183, N-(cyclohexylmethyl)-4-({4-[6-(4-fluorophenyl)imidazo[2,1-b][1,3]oxazol-5-yl]pyrimidin-2-yl}amino)piperidine-1-carboxamide]
– | 876 | O=Cc1ccc(-c2nc3sccn3c2-c2ccnc(N[C@@H]3CCCN(S(=O)(=O)c4ccc(Cl)cc4)C3)n2)cc1 [Example 385, 4-{5-[2-({(3R)-1-[(4-chlorophenyl)sulfonyl]piperidin-3-yl}amino)pyrimidin-4-yl]imidazo[2,1-b][1,3]thiazol-6-yl}benzaldehyde]
– | 850 | COc1cccc(-c2nc3sccn3c2-c2ccnc(N[C@@H]3CCCN(S(C)(=O)=O)C3)n2)c1 [Example 151, 4-[6-(3-methoxyphenyl)imidazo[2,1-b][1,3]thiazol-5-yl]-N-[(3R)-1-(methylsulfonyl)piperidin-3-yl]pyrimidin-2-amine]
– | 11 | O=S(=O)(c1ccc(Cl)cc1)N1CCC[C@@H](Nc2nccc(-c3c(-c4ccc(Cl)c(O)c4)nc4sccn34)n2)C1 [Example 101, 2-chloro-5-{5-[2-({(3R)-1-[(4-chlorophenyl)sulfonyl]piperidin-3-yl}amino)pyrimidin-4-yl]imidazo[2,1-b][1,3]thiazol-6-yl}phenol]
– | 1980 | Cc1ccc(NC(=O)N2CCC(Nc3nccc(-c4c(-c5ccc(F)cc5)nc5occn45)n3)CC2)cc1 [Example 172, 4-({4-[6-(4-fluorophenyl)imidazo[2,1-b][1,3]oxazol-5-yl]pyrimidin-2-yl}amino)-N-(4-methylphenyl)piperidine-1-carboxamide]
49 | – | O=C(Nc1ccc(F)cc1)N1CCC(Nc2nccc(-c3c(-c4ccc(F)cc4)nc4sccn34)n2)CC1 [Example 295, N-(4-fluorophenyl)-4-({4-[6-(4-fluorophenyl)imidazo[2,1-b][1,3]thiazol-5-yl]pyrimidin-2-yl}amino)piperidine-1-carboxamide]
– | 1090 | CCOC(=O)c1ccc(-c2nc3sccn3c2-c2ccnc(N[C@@H]3CCCN(S(=O)(=O)c4ccc(Cl)cc4)C3)n2)cc1OCC [Example 130, ethyl 4-{5-[2-({(3R)-1-[(4-chlorophenyl)sulfonyl]piperidin-3-yl}amino)pyrimidin-4-yl]imidazo[2,1-b][1,3]thiazol-6-yl}-2-ethoxybenzoate]
– | 92 | O=S(=O)(c1ccc(Cl)cc1)N1CCC(Nc2nccc(-c3c(-c4ccc(F)cc4)nc4occn34)n2)CC1 [Example 199, N-{1-[(4-chlorophenyl)sulfonyl]piperidin-4-yl}-4-[6-(4-fluorophenyl)imidazo[2,1-b][1,3]oxazol-5-yl]pyrimidin-2-amine]
16 | – | Cc1ccc(NC(=O)N2CCC[C@@H](Nc3nccc(-c4c(-c5ccc(F)cc5)nc5occn45)n3)C2)cc1 [Example 17]
– | > 3000 | CCS(=O)(=O)N1CCC[C@@H](Nc2nccc(-c3c(-c4cccc(O)c4)nc4sccn34)n2)C1 [Example 373, 3-[5-(2-{[(3R)-1-(ethylsulfonyl)piperidin-3-yl]amino}pyrimidin-4-yl)imidazo[2,1-b][1,3]thiazol-6-yl]phenol]
– | 3250 | CCOC(=O)c1ccc(-c2nc3sccn3c2-c2ccnc(N[C@@H]3CCCN(S(=O)(=O)c4ccc(Cl)cc4)C3)n2)cc1 [Example 361, ethyl 4-{5-[2-({(3R)-1-[(4-chlorophenyl)sulfonyl]piperidin-3-yl}amino)pyrimidin-4-yl]imidazo[2,1-b][1,3]thiazol-6-yl}benzoate]
– | 4000 | COc1cccc(-c2nc3occn3c2-c2ccnc(NC3CCN(C(=O)NS(=O)(=O)c4ccc(Cl)cc4)CC3)n2)c1 [Example 324, N-[(4-chlorophenyl)sulfonyl]-4-({4-[6-(3-methoxyphenyl)imidazo[2,1-b][1,3]oxazol-5-yl]pyrimidin-2-yl}amino)piperidine-1-carboxamide]
– | 218 | Cc1ccc(S(=O)(=O)N2CCC(Nc3nccc(-c4c(-c5ccc(F)cc5)nc5occn45)n3)CC2)cc1 [Example 198, 4-[6-(4-fluorophenyl)imidazo[2,1-b][1,3]oxazol-5-yl]-N-{1-[(4-methylphenyl)sulfonyl]piperidin-4-yl}pyrimidin-2-amine]
